Consider ten molecules from patent publication EP4813463A2, “TYK2 INHIBITORS AND COMPOSITIONS AND METHODS THEREOF” (Lynk Pharmaceuticals Co. Ltd., priority 2023, dated 2024).

Values after ≈ are worked out from the molar mass of the structure shown. Like-named read-outs stand apart in the source and are kept apart here.

One data set deals with T1, TYK2-JH2 domain (Homo sapiens, UniProt P29597).
T1 construct: JAK1-JH2 domain or TYK2-JH2 domain enzyme in assay buffer
The data set can be described thus: Binding activity test for JH2 domain of TYK2 (Tb-antibody/tracer FRET). To be noted: for IC50: JH2 domain enzyme, 60 min at 25°C, then 4°C overnight, read-out: TYK2 JH2 Binding IC50; for JAK1/TYK2 selectivity: ratio of JAK1 JH2 to TYK2 JH2 binding IC50. A digest of the protocol:
(§1)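 IC50 values (nM) come from TR-FRET readings taken after a 25°C incubation followed by overnight at 4°C. Each well held JH2 domain protein, Tb-antibody, tracer and test compound titrated in 11 threefold steps, with DMSO high and low controls.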

For a further data set, the target named is T2, JAK1-JH2 domain (Homo sapiens, UniProt P23458).
T2 construct: JAK1-JH2 domain or TYK2-JH2 domain enzyme in assay buffer
Put plainly: Binding activity test for JH2 domain of JAK1 (Tb-antibody/tracer FRET). The conditions noted are these: JH2 domain enzyme; 60 min at 25°C, then 4°C overnight; read-out: JAK1 JH2 Binding IC50. In short, it runs like this:
as §1

Data set [1] has as its system Ba/F3-FL-TYK2-P760L cells. Put plainly: Anti-proliferative assay in engineered Ba/F3 cells (Cell-Titer Glo, 72 h). The class given is cell-based. The conditions noted are these: 72 h compound treatment, concentration that causes 50% growth inhibition, read-out: Baf3-FL-T2P760L. A digest of the protocol:
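IC50 from luminescent ATP viability after 72 h compound exposure (37 °C, 5% CO2), % inhibition normalised to DMSO-treated cells minus medium blank. IL-3-free Ba/F3-FL-TYK2-P760L (Tel-JAK fusion) cells in 10% FBS RPMI-1640 received 9 three-fold doses, top 20 µM, 0.1% DMSO.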

Another data set deals with pSTAT1. The data set can be described thus: Phosphorylation inhibition of STAT in human whole blood (IFN-alpha stimulated, flow cytometry). The format is cell-based. To be noted: T-cell, 20 min, IFN-alpha stimulation 20 mins, CD3 T cells, read-out: pSTAT1 inhibition in hWB (IC50). As to the method:
The inhibitory potential of test articles in human whole blood assay was evaluated by the method of flow cytometry.
IFN-alpha will activate JAK1 and TYK2 kinase in T cells by binding to IFN receptors, and then lead to phosphorylation of STAT1 and STAT2. The phosphorylated STAT1 enter nuclear and promote transcription and expression of IFN-gamma. To evaluate the efficacy of TYK2i in T cells, freshly collected human whole blood will be stimulated with certain unit of human IFN-alpha (Universal Type I IFN(1MU), R&D, 11200-2) for 20 mins in incubator. After stimulation, fix cells with Phosflow™ Fix Buffer I (BD, 557870), and then collect fixed cells by centrifugation (500 g, 8min). Wash cells once with pre-cooled PBS, and then permeabilize cells with cold Perm Buffer III buffer (BD, 558050) for 45 mins on ice. Collect cells by centrifugation (600 g, 8min) and washed twice with cold PBS. Stain cells with anti-human CD3(FITC Mouse Anti-Human CD3, BD, 555332) and anti-pSTAT1_Y701(Alexa Fluor 647 Mouse Anti-Stat1 (pY701), BD, 612597) antibodies. Detect pSTAT1 by flow cytometry (CytoFlex S) and analyze data with FlowJo and GraphPad Prism 8 software. IC50 values of test articles were determined using 4- parameter logistic equation.
For orientation: In flow cytometry, cells or beads pass a laser one at a time.

Another data set can be described thus: Kinetic solubility. The format is physicochemical. The conditions noted are these: phosphate buffer, pH 7.4, aqueous buffer, kinetic from dmso stock, 100 mM pH 7.4 phosphate buffer, 1% DMSO, room temperature, read-out: Kinetics Solubility_PBS7.4. As to the method: Aliquots of 8 µL of reference and test compound stock solutions (10 mM/5 mM) are added into 792 µL of 100 mM pH 7.4 phosphate buffer. The final DMSO concentration is 1%. Sample tubes are shaken for 2 hours at 1000 rpm at room temperature. Samples are centrifuged at 12000 rpm for 10 min to precipitate un-dissolved particles. And transfer the supernatants to a new tube or plate. Add 5 µL of samples (no diluted, 10 times diluted, and 100 times diluted) and standard curve samples to 95 µL of ACN containing IS for LC-MS/MS analysis. Kinetic Solubilities Values of Exemplary Compounds

A short description of data set [2]: Microsomal metabolic stability assay. The class given is in vitro ADME. To be noted: human, liver microsomes, pH 7.4, 0.5 mg/mL microsomal protein, 1 µM test article, 2 mM NADPH; for microsomal CLint at 1 µM: read-out: Human LM Clint; for half-life at 1 µM: read-out: Human LM T1/2. A digest of the protocol: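 Test or control compound (1 µM) incubated with microsomes (0.5 mg/mL protein) in 100 mM potassium phosphate pH 7.4, 1.0 mM EDTA at 37°C, started with NADPH regenerating system (2 mM NADPH). Sampled at 0, 5, 15, 30, 45 min, acetonitrile-quenched, LC/MS/MS. T1/2 from ln %remaining vs time slope; CLint = 0.693/T1/2 per mg protein/mL.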
(In general: Liver microsomes are vesicles of endoplasmic reticulum, rich in cytochrome P450 enzymes.)

T2 sequence (P23458 583-855 limits assumed): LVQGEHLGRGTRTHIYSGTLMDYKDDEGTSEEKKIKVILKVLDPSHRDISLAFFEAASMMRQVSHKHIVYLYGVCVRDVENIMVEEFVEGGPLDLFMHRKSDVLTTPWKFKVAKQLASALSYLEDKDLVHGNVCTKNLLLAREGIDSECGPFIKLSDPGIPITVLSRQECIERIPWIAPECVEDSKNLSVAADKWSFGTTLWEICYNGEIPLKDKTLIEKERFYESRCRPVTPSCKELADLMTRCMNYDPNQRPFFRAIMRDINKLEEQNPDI
T1 sequence (P29597 589-875 limits assumed): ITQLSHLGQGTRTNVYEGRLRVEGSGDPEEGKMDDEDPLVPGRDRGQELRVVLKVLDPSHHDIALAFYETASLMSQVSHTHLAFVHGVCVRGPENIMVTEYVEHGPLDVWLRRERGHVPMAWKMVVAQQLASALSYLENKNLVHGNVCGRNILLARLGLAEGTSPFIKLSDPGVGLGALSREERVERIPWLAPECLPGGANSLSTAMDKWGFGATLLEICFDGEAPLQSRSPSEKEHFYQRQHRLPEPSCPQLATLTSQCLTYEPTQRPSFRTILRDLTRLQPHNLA

Consider `[2H]C([2H])([2H])NC(=O)c1cnc(NC(=O)C2CC2)cc1Nc1cnn2ccc(C(C)C(F)(F)F)c(OC)c12` (single isomer, unassigned) [Example 9B, (S*)-6-(cyclopropanecarboxamido)-4-((4-methoxy-5-(1,1,1-trifluoropropan-2-yl)pyrazolo[1,5-a]pyridin-3-yl)amino)-N-(methyl-d3)nicotinamide], for which the IC50 at TYK2-JH2 domain stood at 0.08 nM; at JAK1-JH2 domain, 5.04 nM; in data set [1] it was 54.2 nM; in the data set with pSTAT1, 290 nM. Further, on TYK2-JH2 domain, the JAK1/TYK2 selectivity is 63.0. The solubility kinetic at 2 h in “Kinetic solubility” came out at 45.4 µM (≈ 21.7 µg/mL).

For the molecule `[2H]C([2H])([2H])NC(=O)c1cnc(NC(=O)C2CC23CC3)cc1Nc1cnn2ccc([C@H](O)C(F)(F)F)c(OC)c12` (single isomer, unassigned) [Example 32A, 4-((4-Methoxy-5-((S)-2,2,2-trifluoro-1-hydroxyethyl)pyrazolo[1,5-a]pyridin-3-yl)amino)-N-(methyl-d3)-6-((S*)-spiro[2.2]pentane-1-carboxamido)nicotinamide], the IC50 at TYK2-JH2 domain is 0.099 nM; at JAK1-JH2 domain it was 18.6 nM; in data set [1] it was 33 nM; in the data set on pSTAT1, 99.4 nM. Further, the JAK1/TYK2 selectivity at TYK2-JH2 domain was 187.6. Also, the solubility kinetic at 2 h in the data set “Kinetic solubility” amounted to 25.5 µM (≈ 12.9 µg/mL).

With `[2H]C([2H])([2H])NC(=O)c1cnc(NC(=O)C2CC2)cc1Nc1cn(C)c2ccc(CC)c(OC)c12` [Example 2, 6-(Cyclopropanecarboxamido)-4-((5-ethyl-4-methoxy-1-methyl-1H-indol-3-yl)amino)-N-(methyl-d3)nicotinamide], the IC50 on TYK2-JH2 domain is 0.333 nM; at JAK1-JH2 domain, 5.24 nM; in data set [1] (Mus musculus, BaF3, 72 h), 17 nM; with pSTAT1, 141 nM. Besides, the JAK1/TYK2 selectivity on TYK2-JH2 domain is reported as 15.7. For the same molecule, the solubility kinetic at 2 h in the data set “Kinetic solubility” came out at 15.3 µM (≈ 6.5 µg/mL).

For the molecule `[2H]C([2H])([2H])NC(=O)c1cnc(NC(=O)C2CC2)cc1Nc1cnn2ccc(Cl)c(OC)c12` [Example 3, 4-((5-Chloro-4-methoxypyrazolo[1,5-a]pyridin-3-yl)amino)-6-(cyclopropanecarboxamido)-N-(methyl-d3)nicotinamide], the IC50 on TYK2-JH2 domain came out at 0.223 nM; on JAK1-JH2 domain, 13.4 nM; in data set [1] (Mus musculus, BaF3, 72 h) it was 43.6 nM; in the data set with pSTAT1 it was 177 nM. Moreover, at TYK2-JH2 domain, the JAK1/TYK2 selectivity was determined as 59.9. The solubility kinetic at 2 h in the data set “Kinetic solubility” turned out to be 15.1 µM (≈ 6.31 µg/mL).

Turning to `[2H]C([2H])([2H])NC(=O)c1cnc(NC(=O)C2CC2)cc1Nc1cnn2ccc(C)c(OC)c12` [Example 5, 6-(Cyclopropanecarboxamido)-4-((4-methoxy-5-methylpyrazolo[1,5-a]pyridin-3-yl)amino)-N-(methyl-d3)nicotinamide], the IC50 on TYK2-JH2 domain turned out to be 0.137 nM; on JAK1-JH2 domain, 6.62 nM; in data set [1] (Mus musculus, BaF3, 72 h), 32 nM; in the data set with pSTAT1 it was 139 nM. Also, the JAK1/TYK2 selectivity on TYK2-JH2 domain was 48.3. Further, the solubility kinetic at 2 h in “Kinetic solubility” amounted to 57.4 µM (≈ 22.8 µg/mL).

As for `[2H]C([2H])([2H])NC(=O)c1cnc(NC(=O)C2CC2)cc1Nc1cnn2ccc(C(O)C(F)(F)F)c(OC)c12` (stereo not shown) [Example 7, 6-(Cyclopropanecarboxamido)-4-((4-methoxy-5-(2,2,2-trifluoro-1-hydroxyethyl)pyrazolo[1,5-a]pyridin-3-yl)amino)-N-(methyl-d3)nicotinamide], the IC50 stood at 0.147 nM on TYK2-JH2 domain; 11 nM on JAK1-JH2 domain; 9.32 nM in data set [1] (Mus musculus, BaF3, 72 h); 67.4 nM in the data set with pSTAT1. The JAK1/TYK2 selectivity at TYK2-JH2 domain is 74.9. Moreover, in the data set “Kinetic solubility”, the solubility kinetic at 2 h worked out at 42.9 µM (≈ 20.7 µg/mL).

`[2H]C([2H])([2H])NC(=O)c1cnc(NC(=O)C2CC2)cc1Nc1cnn2ccc(CC(F)(F)F)c(OC)c12` [Example 8, 6-(Cyclopropanecarboxamido)-4-((4-methoxy-5-(2,2,2-trifluoroethyl)pyrazolo[1,5-a]pyridin-3-yl)amino)-N-(methyl-d3)nicotinamide]: the IC50 at TYK2-JH2 domain was 0.106 nM; at JAK1-JH2 domain it was 3.39 nM; in data set [1] (Mus musculus, BaF3, 72 h), 31.3 nM; in the data set with pSTAT1, 75.5 nM. The JAK1/TYK2 selectivity at TYK2-JH2 domain was 32.0. Further, the solubility kinetic at 2 h in “Kinetic solubility” is 18.6 µM (≈ 8.63 µg/mL).

Regarding `[2H]C([2H])([2H])NC(=O)c1cnc(Nc2ccc(F)cn2)cc1Nc1cnn2ccc([C@H](O)C(F)(F)F)c(OC)c12` [Example 24, (S)-6-((5-fluoropyridin-2-yl)amino)-4-((4-methoxy-5-(2,2,2-trifluoro-1-hydroxyethyl)pyrazolo[1,5-a]pyridin-3-yl)amino)-N-(methyl-d3)nicotinamide], the IC50 was determined as 0.066 nM on TYK2-JH2 domain; 18.6 nM on JAK1-JH2 domain; 3.87 nM in data set [1] (Mus musculus, BaF3, 72 h); 34.6 nM with pSTAT1. Further, the JAK1/TYK2 selectivity on TYK2-JH2 domain is on record as 281.8. In addition, the microsomal CLint at 1 µM in data set [2] is 24.6 µL/min/mg. Besides, the half-life at 1 µM in data set [2] was determined as 0.937 h. In addition, in the data set “Kinetic solubility”, the solubility kinetic at 2 h came to 10.4 µM (≈ 5.27 µg/mL).

In the case of `[2H]C([2H])([2H])NC(=O)c1cnc(NC(=O)C2CC2)cc1Nc1nn(C)c2ccc([C@H](OC)C(F)(F)F)c(OC)c12` [Example 46A, (S)-6-(cyclopropanecarboxamido)-4-((4-methoxy-1-methyl-5-(2,2,2-trifluoro-1-methoxyethyl)-1H-indazol-3-yl)amino)-N-(methyl-d3)nicotinamide], the IC50 on TYK2-JH2 domain worked out at 0.074 nM; at JAK1-JH2 domain it was 3.01 nM; in data set [1] (Mus musculus, BaF3, 72 h), 0.31 nM; with pSTAT1, 33 nM. Moreover, the JAK1/TYK2 selectivity on TYK2-JH2 domain was determined as 40.64. The solubility kinetic at 2 h in the data set “Kinetic solubility” stood at 8.16 µM (≈ 4.16 µg/mL).

For `[2H]C([2H])([2H])NC(=O)c1cnc(NC(=O)C2CC2)cc1Nc1nn(C)c2ccc(C(O)C(F)(F)F)c(OC)c12` (stereo not shown) [Example 49, 6-(Cyclopropanecarboxamido)-4-((4-methoxy-1-methyl-5-(2,2,2-tritluoro-1-hydroxyethyl)-1H-indazol-3-yl)amino)-N-(methyl-d3)nicotinamide], the IC50 at TYK2-JH2 domain was found to be 0.136 nM; on JAK1-JH2 domain, 4.1 nM; in data set [1] (Mus musculus, BaF3, 72 h), 0.729 nM; with pSTAT1, 27.9 nM. Besides, the JAK1/TYK2 selectivity on TYK2-JH2 domain is recorded as 30.13. For the same molecule, the microsomal CLint at 1 µM in data set [2] worked out at 15.7 µL/min/mg. For the same molecule, the half-life at 1 µM in data set [2] was 1.47 h. In addition, the solubility kinetic at 2 h in “Kinetic solubility” was determined as 83 µM (≈ 41.1 µg/mL).
